Data on 19 compounds can be found in US12122764B2, “IKAROS zinc finger family degraders and uses thereof” (Gilead Sciences, Inc., priority 2021, dated 2024).

The target in the first test is T1, IKZF2 (Homo sapiens, UniProt Q96SW2+Q9UKS7).
T1 construct: expressed in transfected cells
T1 sequence (Q9UKS7 1-500 isoform Q9UKS7-2): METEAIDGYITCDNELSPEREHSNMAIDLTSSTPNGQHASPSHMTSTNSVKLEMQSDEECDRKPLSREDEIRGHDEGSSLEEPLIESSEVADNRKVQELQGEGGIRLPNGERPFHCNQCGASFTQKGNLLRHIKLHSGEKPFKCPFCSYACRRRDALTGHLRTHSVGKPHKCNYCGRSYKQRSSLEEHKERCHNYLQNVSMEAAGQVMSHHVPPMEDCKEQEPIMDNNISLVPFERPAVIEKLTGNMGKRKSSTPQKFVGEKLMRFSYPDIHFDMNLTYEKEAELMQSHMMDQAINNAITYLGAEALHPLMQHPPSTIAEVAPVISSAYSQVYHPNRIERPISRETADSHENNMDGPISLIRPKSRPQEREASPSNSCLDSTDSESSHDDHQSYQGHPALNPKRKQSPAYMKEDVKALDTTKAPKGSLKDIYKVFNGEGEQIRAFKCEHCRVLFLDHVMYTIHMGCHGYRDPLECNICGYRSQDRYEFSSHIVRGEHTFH
T1 sequence (Q96SW2 whole entry): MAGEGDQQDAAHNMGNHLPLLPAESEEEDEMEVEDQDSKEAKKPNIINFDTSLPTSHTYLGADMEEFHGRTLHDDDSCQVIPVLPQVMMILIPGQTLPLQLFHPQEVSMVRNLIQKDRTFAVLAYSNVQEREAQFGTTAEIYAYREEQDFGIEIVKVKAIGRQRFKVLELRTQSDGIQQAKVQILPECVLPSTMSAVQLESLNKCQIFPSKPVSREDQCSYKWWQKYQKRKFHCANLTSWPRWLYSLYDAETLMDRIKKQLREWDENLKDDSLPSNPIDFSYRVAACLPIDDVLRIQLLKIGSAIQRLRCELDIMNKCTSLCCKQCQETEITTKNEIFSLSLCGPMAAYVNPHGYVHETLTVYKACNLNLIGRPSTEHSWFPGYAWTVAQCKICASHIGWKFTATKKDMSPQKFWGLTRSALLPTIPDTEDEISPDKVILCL
T1 sequence (Q16531 whole entry partner): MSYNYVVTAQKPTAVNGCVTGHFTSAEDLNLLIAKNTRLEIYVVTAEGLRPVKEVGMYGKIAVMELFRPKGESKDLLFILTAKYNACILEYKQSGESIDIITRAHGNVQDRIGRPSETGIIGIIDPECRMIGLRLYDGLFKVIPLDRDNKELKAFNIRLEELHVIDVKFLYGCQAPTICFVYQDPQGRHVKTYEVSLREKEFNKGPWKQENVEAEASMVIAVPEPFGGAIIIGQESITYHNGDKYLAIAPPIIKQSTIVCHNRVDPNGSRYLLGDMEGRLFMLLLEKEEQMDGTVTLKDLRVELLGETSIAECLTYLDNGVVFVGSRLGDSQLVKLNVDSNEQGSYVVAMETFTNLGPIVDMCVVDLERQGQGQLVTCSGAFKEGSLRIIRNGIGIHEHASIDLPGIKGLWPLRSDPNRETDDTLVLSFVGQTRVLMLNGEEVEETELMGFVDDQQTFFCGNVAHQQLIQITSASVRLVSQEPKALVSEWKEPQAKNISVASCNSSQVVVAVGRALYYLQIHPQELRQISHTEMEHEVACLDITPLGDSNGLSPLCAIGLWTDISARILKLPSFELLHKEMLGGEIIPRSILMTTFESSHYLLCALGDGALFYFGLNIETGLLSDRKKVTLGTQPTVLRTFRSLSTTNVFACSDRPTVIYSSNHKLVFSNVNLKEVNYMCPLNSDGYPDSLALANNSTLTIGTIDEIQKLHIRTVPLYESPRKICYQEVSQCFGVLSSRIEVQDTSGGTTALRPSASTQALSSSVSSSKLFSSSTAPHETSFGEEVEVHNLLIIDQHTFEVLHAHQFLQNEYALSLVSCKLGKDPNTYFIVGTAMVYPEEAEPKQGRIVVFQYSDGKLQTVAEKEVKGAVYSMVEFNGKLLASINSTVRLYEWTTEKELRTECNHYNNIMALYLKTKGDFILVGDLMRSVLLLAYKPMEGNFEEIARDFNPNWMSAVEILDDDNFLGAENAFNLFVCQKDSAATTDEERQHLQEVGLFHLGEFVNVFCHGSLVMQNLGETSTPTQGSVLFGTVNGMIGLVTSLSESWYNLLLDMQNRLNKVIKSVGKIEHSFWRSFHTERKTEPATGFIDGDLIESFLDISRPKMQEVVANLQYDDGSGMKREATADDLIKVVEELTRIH
Put plainly: HiBiT protein tagging assay, in vitro IKZF2 degradation (HEK293). As to conditions: IKZF2-HiBiT reporter Flp-In T-REx HEK293 cells, doxycycline-induced, compound overnight (18-24 hr), normalized to DMSO control. The format is cell-based. The procedure:
In vitro degradation of IKZF1 and IKZF2 was measured using HiBiT protein tagging and detection technology (Promega).
HiBiT technology (Promega) was used to develop the quantitative assays to measure the cellular IKZFs level by tagging an 11 amino acid HiBit peptides VSGWRLFKKIS (SEQ ID NO:1) to the protein of interest. Reporter plasmids were generated by fusing a linker sequence (GSSGGSSG; SEQ ID NO:2) followed by the HiBiT tag at the C terminus of IKZF1 and IKZF2. The fusion fragments were subsequently cloned into pcDNA5 pcDNA™5/FRT/TO plasmids (Thermo Fisher, cat #V652020) downstream of the Tetracycline operator. The resulting plasmids were co-transfected with pOG44 Flp-Recombinase Expression Vector (Thermo Fisher, cat #V600520) into Flp-In™ T-REx HEK293 line (Thermo Fisher, cat #R78077) and a stable cell pool was selected by adding 100 μg/ml of Hygromycin (Thermo Fisher, cat #10687010). The reporter cell enabled Tet-On inducible reporter expression from a single copy of the integrated gene.
On Day 1, Cells were grown to ˜80% confluency in TC medium (DMEM Glutamax (Gibco10569), 10% Tet free FBS (Takara 631106), and PenStrep Glutamin (Gibco 10378)) in tissue culture flasks. Doxycycline was then added to a final concentration of 1 μg/ml to induce reporter expression at 37° C. overnight.
On Day 2, 125 nL of serially-diluted solution of testing compounds were dispensed into 384-well white solid assay plates via ECHO acoustic liquid handler. Cells were lifted by 0.25% Trypsin (Gibco 25200) then pelleted by centrifugation (Beckman Avanti J-E) at 500×g for 5 min. Cell pellets were resuspended in TC medium at the concentration of 3e5/mL and 25 μL of cell suspension were added into each well of compound-spotted plates. The plates were returned to a 37° C. incubator overnight (18-24 hr).
On Day 3, assay plates were removed from the TC incubator and 25 μL of Nano-Glo lytic detection system (Promega, cat #N3030) was added to each well. Plates were incubated at r.t. for 3 min with shaking, and luminescence was read using an Envision reader (Perkin Elmer).
All raw data was normalized to DMSO control (final concentration: 0.5%) wells as POC and plotted out for EC50 and Dmax (Maximum degradation at the highest concentration tested in the assay).
(In general: With HiBiT, luminescence reflects the tagged protein that the partner subunit can reach.)
Turning to `O=C1CCC(N2Cc3cc(O[C@@H]4CN(Cc5ccccc5)CC[C@H]4NC(=O)NCc4ccccc4)ccc3C2=O)C(=O)N1` (relative stereo) [Example 55, 1-benzyl-3-((3,4-trans)-1-benzyl-3-((2-(2,6-dioxopiperidin-3-yl)-1-oxoisoindolin-5-yl)oxy)piperidin-4-yl)urea], the “IKZF2 Dmax (maximum degradation at the highest concentration tested)” value was 91%.

Take `O=C1CCC(N2Cc3cc(O[C@@H]4CN(Cc5ccccc5)CC[C@H]4NCC(F)(F)F)ccc3C2=O)C(=O)N1` (relative stereo) [Example 45, 3-(5-(((3,4-trans)-1-benzyl-4-((2,2,2-trifluoroethyl)amino)piperidin-3-yl)oxy)-1-oxoisoindolin-2-yl)piperidine-2,6-dione]: the “IKZF2 Dmax (maximum degradation at the highest concentration tested)” value turned out to be 44%.

The same test, now with this note: IKZF2-HiBiT reporter Flp-In T-REx HEK293 cells, doxycycline-induced, compound overnight (18-24 hr), normalized to DMSO control; read-out: IKZF2 Dmax (maximum degradation at the highest concentration tested).
Take `O=C1CCC(N2Cc3cc(OC4CN(CC(F)F)CCC4NCc4ccccc4)ccc3C2=O)C(=O)N1` (stereo not drawn) [Example 49, 3-(5-(((3,4-trans)-4-(benzylamino)-1-(2,2-difluoroethyl)piperidin-3-yl)oxy)-1-oxoisoindolin-2-yl)piperidine-2,6-dione]: the Dmax was determined as 69%.

With `O=C1CCC(N2Cc3cc(O[C@H]4CN(Cc5cc(F)ccc5F)CC[C@@H]4NCc4ccccc4)ccc3C2=O)C(=O)N1` (mixture of isomers) [Example 23], the Dmax was 88%.

For the compound `CCN[C@H]1CCN(Cc2ccc(F)cc2)C[C@@H]1Oc1ccc2c(c1)CN(C1CCC(=O)NC1=O)C2=O` (stereo partly shown) [Example 64], the Dmax was 98%.

With `O=C1CCC(N2Cc3cc(OC4CN(Cc5ccccc5)CCC4N(C4CC4)C4CC4)ccc3C2=O)C(=O)N1` (racemic) [Example 61], the Dmax came to 82%.

For `O=C1CCC(N2Cc3cc(O[C@H]4CN(Cc5ccc(F)cc5F)CC[C@@H]4NCc4ccccc4)ccc3C2=O)C(=O)N1` (mixture of isomers) [Example 21], the Dmax came to 92%.

On to `CCNC1CCN(Cc2ccccc2)CC1Oc1ccc2c(c1)CN(C1CCC(=O)NC1=O)C2=O` (racemic) [Example 12], for which the Dmax is 97%.

With `CC(C)NC1CCN(Cc2ccccc2)CC1Oc1ccc2c(c1)CN(C1CCC(=O)NC1=O)C2=O` (racemic) [Example 36], the Dmax was found to be 98%.

For `O=C1CCC(N2Cc3cc(O[C@H]4CN(Cc5ccccc5)CC[C@@H]4NCc4ccc(F)cc4)ccc3C2=O)C(=O)N1` (mixture of isomers) [Example 26], the Dmax came to 89%.

Regarding `O=C1CCC(N2Cc3cc(O[C@H]4CN(Cc5ccc(C(F)(F)F)cc5)CC[C@@H]4NCc4ccccc4)ccc3C2=O)C(=O)N1` (mixture of isomers) [Example 34], the Dmax was 80%.

Take `O=C1CCC(N2Cc3cc(O[C@H]4CN(Cc5cc(F)cc(F)c5)CC[C@@H]4NCc4ccccc4)ccc3C2=O)C(=O)N1` (mixture of isomers) [Example 25]: the Dmax turned out to be 75%.

In the case of `O=C1CCC(N2Cc3cc(O[C@H]4CN(Cc5c(F)cccc5F)CC[C@@H]4NCc4ccccc4)ccc3C2=O)C(=O)N1` (mixture of isomers) [Example 24], the Dmax was 93%.

In the case of `O=C1CCC(N2Cc3cc(OC4CN(Cc5ccccc5)CCC4NCc4ccccn4)ccc3C2=O)C(=O)N1` (racemic) [Example 13], the Dmax came to 84%.

With `O=C1CCC(N2Cc3cc(O[C@H]4CN(Cc5ccc(-c6ccccc6)cc5)CC[C@@H]4NCc4ccccc4)ccc3C2=O)C(=O)N1` (mixture of isomers) [Example 31], the Dmax stood at 101%.

On to `C[C@H](c1ccccc1)N1CC[C@H](NCc2ccccc2)[C@@H](Oc2ccc3c(c2)CN(C2CCC(=O)NC2=O)C3=O)C1` (mixture of isomers) [Example 51], for which the Dmax was determined as 57%.

Turning to `O=C1CCC(N2Cc3cc(OC4CN(Cc5cccnc5)CCC4NCc4ccccc4)ccc3C2=O)C(=O)N1` (racemic) [Example 7], the Dmax amounted to 92%.

`CC(C)CN1CCC(NCc2ccccc2)C(Oc2ccc3c(c2)CN(C2CCC(=O)NC2=O)C3=O)C1` (racemic) [Example 6]: the Dmax came to 35%.

On to `O=C1CCC(N2Cc3cc(OC4CN(Cc5ccccc5)CCC4NCc4cccnc4)ccc3C2=O)C(=O)N1` (racemic) [Example 14], for which the Dmax turned out to be 91%.
